Data as given in patent US11986474B1, “Methods for treating heart failure by administering cardiac sarcomere activators” (Cytokinetics, Incorporated, priority 2023, dated 2024).

Columns and labels:
[1] = tested on: patients with heart failure with reduced ejection fraction; experiment: GALACTIC-HF phase 3 clinical trial, outcomes by titrated dose group; type: in vivo, human; settings: for Hazard Ratio, CV Death / Hazard Ratio, Primary Endpoint: OM vs PBO
Protocol: In a phase 3 clinical trial, Global Approach to Lowering Adverse Cardiac Outcomes through Improving Contractility in Heart Failure (GALACTIC-HF), the following dosing regimen was used to assess treatment effect with omecamtiv mecarbil in patients with heart failure with reduced ejection fraction. At the initiation of treatment, a first dose level of 25 mg twice daily was orally administered to subjects randomized to receive omecamtiv mecarbil. At study visit week 2, a predose blood sample was collected. At week 4, subjects with week 2 omecamtiv mecarbil predose plasma concentration of less than 200 ng/mL would increase their dose level to 50 mg twice daily; subjects with week 2 plasma concentrations greater than or about 200 ng/mL but less than 300 ng/mL would increase their dose level to 37.5 mg twice daily; subjects with week 2 plasma concentrations greater than or about 300 ng/mL but less than 1000 ng/mL would maintain a dose level of 25 mg twice daily; and subjects with plasma concentration greater than or about 1000 ng/mL would start administration of placebo twice daily. At weeks 6, a predose blood sample was collected to confirm plasma concentration achieved and assess if changes to the dose should be made. […] The dosing regimen used in the GALACTIC-HF study was associated with reduced risk of heart failure outcomes and a very low incidence of excessive concentrations of omecamtiv mecarbil (e.g., plasma concentration over 1000 ng/mL). Treatment results were described in, for example, Cardiac Myosin Activation with Omecamtiv Mecarbil in Systolic Heart Failure (Teerlink et al., N. Engl. J. Med., 2021, 384; 2) and NCT02929329.
(§1) In a phase 3 clinical trial, Global Approach to Lowering Adverse Cardiac Outcomes through Improving Contractility in Heart Failure (GALACTIC-HF), all eligible participants were randomized 1:1 to oral administration of either placebo or omecamtiv mecarbil (pharmacokinetic-guided dosing: 25, 37.5 or 50 mg) twice daily. Pre-dose plasma concentrations of omecamtiv mecarbil were measured at weeks 2 and 6 with respective dose adjustments on weeks 4 and 8. The patient and investigator were blinded to the plasma concentrations and dispensed dose.
(§2) Participants randomized to omecamtiv mecarbil were started at the lowest dose of 25 mg twice daily. […] At the end of Week 8, 28.6% of participants were on 25 mg BID (including participants whose plasma concentration results were not available in time for any dose titration visit or participant compliance with dosing was not affirmatively documented by the investigator), which was higher than the anticipated proportion (4.1%) based on population PK modeling. In participants who completed the dosing algorithm as intended and were titrated to 37.5 or 50 mg BID, mean omecamtiv mecarbil plasma concentrations were higher than those in the 25 mg BID dose group. Participants titrated to doses of 37.5 or 50 mg BID tended to have reduced risk of the primary composite endpoint and cardiovascular death compared to those at a dose of 25 mg BID, as shown in Table 2 below.

[2] = tested on: cardiomyocyte calcium transient; settings: cited from earlier work
[3] = tested on: patients with heart failure with reduced ejection fraction; settings: randomized, placebo-controlled phase 3 clinical trial; cited from earlier work
[4] = GALACTIC-HF plasma concentration of omecamtiv mecarbil (PK-guided dosing); type: in vivo; settings: Week 8 visit (Week 6 concentration)
Protocol: as §1, §2
A summary of participants by dose group at Week 4 (dose selection determined by the Week 2 concentrations of omecamtiv mecarbil), at Week 8 (dose selection determined by the Week 6 concentrations of omecamtiv mecarbil), and the final dose at Week 12, is provided in Table 3. Overall, the proportions of participants receiving each of the omecamtiv mecarbil doses remained generally consistent over time. At the Week 8 visit, 3.0% of participants had their doses adjusted from 50 to 25 mg BID and 1.1% from 37.5 to 25 mg BID. […]

[5] = tested on: patients with chronic heart failure with reduced ejection fraction; settings: cited from earlier work
[6] = 25 mg BID dose group, Cox Model Adjusting for Significant Baseline Covariates
[7] = 25 mg BID dose group, Planned Primary Analysis Cox Model
[8] = 37.5 mg BID dose group, Cox Model Adjusting for Significant Baseline Covariates
[9] = 37.5 mg BID dose group, Planned Primary Analysis Cox Model
[10] = 50 mg BID dose group, Cox Model Adjusting for Significant Baseline Covariates
[11] = 50 mg BID dose group, Planned Primary Analysis Cox Model
[12] = patients with chronic HFrEF, treatment for 20 weeks

## COC(=O)N1CCN(Cc2cccc(NC(=O)Nc3ccc(C)nc3)c2F)CC1 [omecamtiv mecarbil, methyl 4-(2-fluoro-3-(3-(6-methylpyridin-3-yl)ureido)benzyl)piperazine-1-carboxylate]
[1]; [6]
  Hazard Ratio, CV Death: 1.11
  Hazard Ratio, Primary Endpoint: 0.93
[1]; [7]
  Hazard Ratio, CV Death: 1.18
  Hazard Ratio, Primary Endpoint: 1.00
[1]; 37.5 mg BID dose group, OM arm
  Primary Endpoint, participants n/N: OM (225/602) vs PBO (1,477/3,897)
[1]; [8]
  Hazard Ratio, CV Death: 0.94
  Hazard Ratio, Primary Endpoint: 0.90
[1]; [9]
  Hazard Ratio, CV Death: 1.00
  Hazard Ratio, Primary Endpoint: 0.93
[1]; [10]
  Hazard Ratio, CV Death: 0.98
  Hazard Ratio, Primary Endpoint: 0.89
[1]; [11]
  Hazard Ratio, CV Death: 0.91
  Hazard Ratio, Primary Endpoint: 0.87
[2]
  effect on intracellular calcium transients: no effect
[3]
  relative risk of a heart-failure event or death from cardiovascular causes vs placebo: lower relative risk
  risk of myocardial ischemic events, ventricular arrhythmias, or death from cardiovascular causes or any cause: without evidence of an increase
[4]
  participants with down titration due to plasma concentration exceeding 750 ng/mL, number (%): 9 (0.22%)
  participants with down titration, plasma concentration in the 750 to <1,000 ng/mL range: 8 participants
[4]; human, plasma, oral, read-out: plasma concentration of the 1 down-titrated participant above 1,000 ng/mL
  concentration at 6 weeks: 1000 ng/mL
[5]; early clinical studies, short-term intravenous administration
  cardiac performance: improved
[5]; likely due to shortening of diastole and decreased coronary perfusion
  plasma concentration above which the risk of cardiac ischemic events is increased: exceeding 1200 ng/mL
[5]; [12]
  left ventricular systolic and diastolic volumes: decreased
  left ventricular systolic function: increased
  natriuretic peptide concentrations and heart rate: reduced
